According to patent publication US6110494A, “Cisapride mini-tablet formulations” (Elan Corporation, plc, priority 1997, dated 2000):

Assays:
[1] = cited from earlier work
[2] = Solubility of cisapride and its salt
[3] = extended release, viscous hydrophilic polymers; cited from earlier work

Row | SMILES | effect of food on absorption ([1]; food) | half life ([1]; in vivo) | absorption in distal regions of the gastrointestinal tract ([1]; more distal regions) | solubilisation at pH 6.8 [2] | dissolution rates [3]
1 | COc1cc(N)c(Cl)cc1C(=O)NC1CCN(CCCOc2ccc(F)cc2)CC1OC (stereo not drawn) [Cisapride] | enhancing effect on the absorption | relatively short half life | significant decrease in absorption | SLS (sodium lauryl sulphate) was required to solubilise | 
2 | COc1cc(N)c(Cl)cc1C(=O)NC1CCN(CCCOc2ccc(F)cc2)CC1OC.O=C(O)C(O)C(O)C(=O)O (single isomer, unassigned; (+)) [(+)-cisapride-(L) tartrate] |  |  |  |  | equal dissolution rates
3 | COc1cc(N)c(Cl)cc1C(=O)NC1CCN(CCCOc2ccc(F)cc2)CC1OC (single isomer, unassigned; (-)) [(-)-cisapride-(L)tartrate] |  |  |  |  | equal dissolution rates
